This experiment addresses T1, human SGLT1 (Homo sapiens, UniProt P13866).
T1 construct: expressed in transfected cells
T1 sequence (P13866 1-664): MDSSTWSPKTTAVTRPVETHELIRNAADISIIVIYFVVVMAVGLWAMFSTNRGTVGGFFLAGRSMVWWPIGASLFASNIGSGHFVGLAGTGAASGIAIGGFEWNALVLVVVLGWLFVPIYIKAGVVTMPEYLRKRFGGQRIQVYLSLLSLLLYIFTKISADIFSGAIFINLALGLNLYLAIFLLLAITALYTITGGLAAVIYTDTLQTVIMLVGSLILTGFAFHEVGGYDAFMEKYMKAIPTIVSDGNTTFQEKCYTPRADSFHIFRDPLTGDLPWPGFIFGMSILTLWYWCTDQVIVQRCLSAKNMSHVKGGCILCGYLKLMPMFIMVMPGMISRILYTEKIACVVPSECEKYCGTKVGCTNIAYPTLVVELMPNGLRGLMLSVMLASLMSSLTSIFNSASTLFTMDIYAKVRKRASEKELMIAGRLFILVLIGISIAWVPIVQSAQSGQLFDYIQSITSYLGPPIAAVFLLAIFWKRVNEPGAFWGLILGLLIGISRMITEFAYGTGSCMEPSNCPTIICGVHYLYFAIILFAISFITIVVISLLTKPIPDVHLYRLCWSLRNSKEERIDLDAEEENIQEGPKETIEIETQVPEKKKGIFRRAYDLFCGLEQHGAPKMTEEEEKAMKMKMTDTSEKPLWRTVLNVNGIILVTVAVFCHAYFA
Briefly: Determination of SGLT1 inhibiting activity using human SGLT1 expressing cell ([14C]-α-methyl-D-glucopyranoside uptake). The settings on record: HEK-SGLT1 cells, 1 mM [14C]-α-methyl-D-glucopyranoside, 37° C., 30 min. The experiment is classed as cell-based. On the procedure:
Determination of SGLT1 Inhibiting Activity Using Human SGLT1 Expressing Cell
1) Preparation of Vector Expressing Human SGLT1 cDNA in Animal Cell
Amplification was performed by PCR using human SGLT1 cDNA clone (Origene: Clone Number, TC119918; GenBank accession number, NM 000343) as a template. The sense oligonucleotide primer for PCR was 5′-[…]-3′ (Primer 1: SEQ ID NO: 1 in the sequence listing),
and the antisense oligonucleotide primer was 5′-[…]-3′ (Primer 2: SEQ ID NO: 2 in the sequence listing).
The PCR product was subjected to agarose electrophoresis, then a target DNA fragment was recovered from a single band corresponding to 2013 bases, digested with restriction enzymes HindIII and XhoI, and introduced into the HindIII/XhoI site of vector pCMV-Script (Stratagene) to obtain SGLT1 expressing plasmid pCMV-SGLT1. A HindIII/XhoI fragment was excised from pCMV-SGLT1 and introduced into the BamHI/XhoI site of pENTR1A (Gateway, Invitrogen) to prepare pENTR-SGLT1. Retrovirus vector pLPCX (Clontech) into which Gateway Vector Conversion System Cassette A (Invitrogen) was introduced was used as the destination plasmid to prepare SGLT1 expressing retrovirus vector pLPCX-SGLT1.
2) Establishment of Human SGLT1 Expressing Cell
The retrovirus pLPCX-SGLT1 obtained in 1) was transfected into integrin αvβ3 expressing HEK-293 cells and, the cells were treated with antibiotic G418 (brand name, Geneticin: Invitrogen) and puromycin (Clontech) to obtain HEK-SGLT1 cells stably expressing the target vector having resistance. The stably expressing cells were cultured and maintained in DMEM medium containing […] G418, […] puromycin, 3 mM KGT-1075, and 10% FBS.
3) Determination of SGLT1 Inhibiting Activity
HEK-SGLT1 cells were suspended at a density of 10^6 cells/mL in DMEM medium containing […] G418, 1 mg/ml puromycin, and 10% FBS, and 100 μL was seeded in each well of a type 1 collagen-coated 96-well culture plate (Corning). On the following day, the medium was replaced with a sugar uptake buffer (10 mM HEPES [pH 7.5], 5 mM Tris-HCl [pH 7.5], 140 mM NaCl, 2 mM KCl, 1 mM CaCl2, 1 mM MgCl2), and the cells were cultured with 1 mM [^14C]-α-methyl-D-glucopyranoside (0.1 mCi) and the test compound at 37° C. for 30 min and then washed 3 times with a washing buffer (10 mM HEPES [pH 7.5], 5 mM Tris-HCl [pH 7.5], 140 mM choline chloride, 2 mM KCl, 1 mM CaCl2, 1 mM MgCl2). 100 μL of liquid scintillation cocktail (brand name, Supermix: Perkin-Elmer) was added to each well of the 96-well plate and stirred for 10 min, and then radioactivity was determined with micro β (Perkin-Elmer), a type of liquid scintillation counter. The value as the sugar uptake activity was obtained by deducting the radioactivity in the presence of an excess amount of an SGLT1 inhibiting compound as the background from each measured value, the inhibition rate (%) was calculated from the control sugar uptake activity obtained without using a test compound and the sugar uptake activity obtained using a test compound having a predetermined the concentration, and concentrations of the test compound at which the sugar uptake activity was inhibited by 50% were assessed.

As to `COc1ccc(Cc2ccc(CO)cc2O[C@@H]2O[C@H]([C@@H](C)O)[C@@H](O)[C@H](O)[C@H]2O)cc1` [Example 9, 2-(4-Methoxybenzyl)-5-hydroxymethylphenyl 7-deoxy-D-glycero-β-D-gluco-heptopyranoside], the IC50 (as a rule, the midpoint of a concentration-inhibition curve) came to 54 nM.

In turn, `COc1ccc(Cc2cc(CO)cnc2O[C@@H]2O[C@H]([C@@H](C)O)[C@@H](O)[C@H](O)[C@H]2O)cc1` [Example 38, 3-(4-Methoxybenzyl)-5-hydroxymethylpyridin-2-yl 7-deoxy-D-glycero-β-D-gluco-heptopyranoside] had an IC50 of 207 nM.

On to `CCc1ccc(Cc2ccc(N)cc2O[C@@H]2O[C@H](C(C)O)[C@@](C)(O)[C@H](O)[C@H]2O)cc1` (stereo partly drawn) [Example 41, 5-Amino-2-(4-ethylbenzyl)phenyl 4-C-methyl-7-deoxy-glycero-β-D-gluco-heptapyranoside], for which the IC50 amounted to 87 nM.

As for `COc1ccc(Cc2c(Cl)cccc2O[C@@H]2O[C@H]([C@@H](C)O)[C@@H](O)[C@H](O)[C@H]2O)cc1` [Example 42, 3-Chloro-2-(4-methoxybenzyl)phenyl 7-deoxy-D-glycero-β-D-gluco-heptopyranoside], the IC50 turned out to be 63 nM.

`COc1ccc(Cc2c(Cl)cc(C)cc2O[C@@H]2O[C@H]([C@@H](C)O)[C@@H](O)[C@H](O)[C@H]2O)cc1` [Example 43, 3-Chloro-5-methyl-2-(4-methoxybenzyl)phenyl 7-deoxy-D-glycero-β-D-gluco-heptopyranoside] displayed an IC50 of 212 nM. Against the preceding compound, the IC50 is about 3.4-fold higher.

On to `COc1ccc(Cc2c(Cl)cc(CO)cc2O[C@@H]2O[C@H]([C@@H](C)O)[C@@H](O)[C@H](O)[C@H]2O)cc1` [Example 44, 3-Chloro-5-hydroxymethyl-2-(4-methoxybenzyl)phenyl 7-deoxy-D-glycero-β-D-gluco-heptopyranoside], for which half-maximal inhibition (IC50) required 29 nM.

With `CCOc1ccc(Cc2c(Cl)cc(CO)cc2O[C@@H]2O[C@H]([C@@H](C)O)[C@@H](O)[C@H](O)[C@H]2O)cc1` [Example 45, 3-Chloro-2-(4-ethoxybenzyl)-5-hydroxymethyl-phenyl 7-deoxy-D-glycero-β-D-gluco-heptopyranoside], inhibition was half-maximal at 118 nM (IC50). Compared with the last compound, the IC50 is about 4.1-fold higher.

On to `CCOc1ccc(Cc2c(F)cc(CO)cc2O[C@@H]2O[C@H]([C@@H](C)O)[C@@H](O)[C@H](O)[C@H]2O)cc1` [Example 46, 2-(4-Ethoxybenzyl)-3-fluoro-5-hydroxymethyl-phenyl 7-deoxy-D-glycero-β-D-gluco-heptopyranoside], for which the IC50 worked out at 56 nM.

`CCc1ccc(Cc2c(F)cc(CO)cc2O[C@@H]2O[C@H]([C@@H](C)O)[C@@H](O)[C@H](O)[C@H]2O)cc1` [Example 47, 2-(4-Ethylbenzyl)-3-fluoro-5-hydroxymethyl-phenyl 7-deoxy-D-glycero-β-D-gluco-heptopyranoside] had an IC50 of 66 nM.

`COc1ccc(Cc2c(Cl)cc(CO)cc2O[C@@H]2O[C@H]([C@H](C)O)[C@@H](O)[C@H](O)[C@H]2O)cc1` [Example 57, 3-Chloro-5-hydroxymethyl-2-(4-methoxybenzyl)phenyl 7-deoxy-L-glycero-β-D-gluco-heptopyranoside]: 217 nM corresponded to half-maximal inhibition (IC50). This IC50 lies about 3.3-fold higher than the previous one.

The compound `C[C@@H](O)[C@H]1O[C@@H](Oc2cc(CO)ccc2Cc2ccc(OC3CC3)cc2)[C@H](O)[C@@H](O)[C@@H]1O` [Example 60, 2-(4-Cyclopropyloxybenzyl)-5-hydroxymethylphenyl 7-deoxy-D-glycero-β-D-gluco-heptopyranoside] came in with an IC50 of 81 nM.

On to `C[C@@H](O)[C@H]1O[C@@H](Oc2cc(CO)ccc2Cc2ccc(C3CC3)cc2)[C@H](O)[C@@H](O)[C@@H]1O` [Example 62, 2-(4-Cyclopropylbenzyl)-5-hydroxymethylphenyl 7-deoxy-D-glycero-β-D-gluco-heptopyranoside], for which the concentration for half-maximal inhibition (IC50) was 155 nM.

As for `C[C@@H](O)[C@H]1O[C@@H](Oc2cc(CO)cc(F)c2Cc2ccc(OC3CC3)cc2)[C@H](O)[C@@H](O)[C@@H]1O` [Example 63, 2-(4-Cyclopropoxybenzyl)-3-fluoro-5-hydroxymethyl-phenyl 7-deoxy-D-glycero-β-D-gluco-heptopyranoside], the IC50 was 68 nM.

`CSc1ccc(Cc2ccc(CO)cc2O[C@@H]2O[C@H]([C@@H](C)O)[C@@H](O)[C@H](O)[C@H]2O)cc1` [Example 66, 5-Hydroxymethyl-2-(4-methylsulfanylbenzyl)phenyl 7-deoxy-D-glycero-β-D-gluco-heptopyranoside] showed an IC50 of 214 nM.

For `CCc1ccc(Cc2ccc(CCO)cc2O[C@@H]2O[C@H]([C@@H](C)O)[C@@H](O)[C@H](O)[C@H]2O)cc1` [Example 67, 2-(4-Ethylbenzyl)-5-(2-hydroxyethyl)phenyl 7-deoxy-D-glycero-β-D-gluco-heptopyranoside], half-maximal inhibition (IC50) was put at 491 nM.

With `C[C@@H](O)[C@H]1O[C@@H](Oc2cc(CO)ccc2Cc2ccc(CCCO)cc2)[C@H](O)[C@@H](O)[C@@H]1O` [Example 68, 5-Hydroxymethyl-2-[4-(3-hydroxypropyl)benzyl]phenyl 7-deoxy-D-glycero-β-D-gluco-heptopyranoside], the IC50 came to 123 nM.

For the compound `COc1ccc(Cc2c(C)cc(C)cc2O[C@@H]2O[C@H]([C@@H](C)O)[C@@H](O)[C@H](O)[C@H]2O)cc1F` [Example 69, 2-(3-Fluoro-4-methoxybenzyl)-3,5-dimethylphenyl 7-deoxy-D-glycero-β-D-gluco-heptopyranoside], half-maximal inhibition (IC50) required 231 nM. Against the preceding compound, the IC50 is about 1.9-fold higher.

Take `Cc1cc(C)c(Cc2ccc(CCO)cc2)c(O[C@@H]2O[C@H]([C@@H](C)O)[C@@H](O)[C@H](O)[C@H]2O)c1` [Example 70, 2-[4-(2-Hydroxyethyl)benzyl]-3,5-dimethylphenyl 7-deoxy-D-glycero-β-D-gluco-heptopyranoside]: the IC50 came to 199 nM.

`CCCOc1ccc(Cc2c(F)cc(CO)cc2O[C@@H]2O[C@H]([C@@H](C)O)[C@@H](O)[C@H](O)[C@H]2O)cc1` [Example 74, 3-Fluoro-5-hydroxymethyl-2-(4-propoxybenzyl)phenyl 7-deoxy-D-glycero-β-D-gluco-heptopyranoside] showed an IC50 of 281 nM.

In turn, `CC(C)Oc1ccc(Cc2c(F)cc(CO)cc2O[C@@H]2O[C@H]([C@@H](C)O)[C@@H](O)[C@H](O)[C@H]2O)cc1` [Example 75, 3-Fluoro-5-hydroxymethyl-2-(4-isopropoxybenzyl)phenyl 7-deoxy-D-glycero-β-D-gluco-heptopyranoside] came in with an IC50 of 269 nM.

`COc1ccc(Cc2c(C)cc(C)cc2O[C@@H]2O[C@H]([C@@H](C)O)[C@@H](O)[C@H](O)[C@H]2O)cc1` [Example 77, 3,5-Dimethyl-2-(4-methoxybenzyl)phenyl 7-deoxy-D-glycero-β-D-gluco-heptopyranoside] displayed an IC50 of 252 nM. The IC50 values of the last two compounds are within 1.5-fold of each other.

Regarding `COc1ccc(Cc2ccc(CO)cc2O[C@@H]2O[C@H]([C@@H](C)O)[C@@H](O)[C@H](O)[C@H]2O)cc1F` [Example 78, 2-(3-Fluoro-4-methoxybenzyl)-5-hydroxymethylphenyl 7-deoxy-D-glycero-β-D-gluco-heptopyranoside], half-maximal inhibition (IC50) was put at 234 nM.

The record behind these values is patent US20090137499A1, “BENZYLPHENYL GLUCOPYRANOSIDE DERIVATIVE” (priority 2006, published 2009).
